Assays:
[1] = tested on: late watergrass; assay: Test Example 1: herbicidal activity, application before weed generation under submerged conditions (Table 16, symbol A); assay type: in vivo, late watergrass (Echinochloa oryzicola); conditions: amount of applied herbicide 320 g/ha
Method in brief: (§1)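 Alluvial soil was flooded to 4 cm depth, weed seeds were sown mixed and 2.5-leaf rice seedlings were transplanted. On sowing day, the compound's emulsion, diluted in water to a set dose, was applied to the water surface. Plants grew at 25–30 °C and were scored 0–5 after three weeks.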

[2] = tested on: Japanese bulrush; assay: Test Example 1: herbicidal activity, application before weed generation under submerged conditions (Table 16, symbol B); assay type: in vivo, Japanese bulrush (Schoenoplectus juncoides); conditions: amount of applied herbicide 320 g/ha
Method in brief: as §1

[3] = tested on: oval-leafed pondweed; assay: Test Example 1: herbicidal activity, application before weed generation under submerged conditions (Table 16, symbol C); assay type: in vivo, oval-leafed pondweed (Monochoria vaginalis); conditions: amount of applied herbicide 320 g/ha
Method in brief: as §1

[4] = tested on: barnyard grass; assay: Test Example 3: herbicidal effect by foliage application, Wagner pot (Table 18, symbol H); assay type: in vivo, barnyard grass (Echinochloa crus-galli); conditions: 320 g/ha
Method in brief: (§2)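 Plants were sown in alluvial soil held under 0.1–0.5 cm standing water and grown 14 days in a greenhouse at 25–30 °C. An emulsifiable formulation, water-diluted to the set dose, was then sprayed onto the foliage, and effects were scored three weeks later using previously defined criteria.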

[5] = tested on: Chinese sprangletop; assay: Test Example 3: herbicidal effect by foliage application, Wagner pot (Table 18, symbol D); assay type: in vivo, chinese sprangletop (Leptochloa chinensis); conditions: 320 g/ha
Method in brief: as §2

[6] = tested on: rice flat sedge; assay: Test Example 3: herbicidal effect by foliage application, Wagner pot (Table 18, symbol E); assay type: in vivo, rice flat sedge (Cyperus iria); conditions: 320 g/ha
Method in brief: as §2

[7] = tested on: southern crabgrass; assay: Test Example 4: herbicidal effect by soil treatment (Table 19, symbol F); assay type: in vivo, southern crabgrass (Digitaria ciliaris); conditions: amount of applied herbicide 320 g/ha
Method in brief: (§3)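 Pre-emergence style soil spray: seeds under ~1.5 cm sterilized diluvial soil received a uniform coat of emulsion diluted to the predetermined herbicide amount. Greenhouse 25–30° C; readout at week three on previously defined criteria.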

[8] = tested on: green foxtail; assay: Test Example 4: herbicidal effect by soil treatment (Table 19, symbol G); assay type: in vivo, green foxtail (Setaria viridis); conditions: amount of applied herbicide 320 g/ha
Method in brief: as §3

[9] = tested on: barnyard grass; assay: Test Example 4: herbicidal effect by soil treatment (Table 19, symbol H); assay type: in vivo, barnyard grass (Echinochloa crus-galli); conditions: amount of applied herbicide 320 g/ha
Method in brief: as §3

[10] = tested on: wild oat; assay: Test Example 4: herbicidal effect by soil treatment (Table 19, symbol I); assay type: in vivo, wild oat (Avena fatua); conditions: amount of applied herbicide 320 g/ha
Method in brief: as §3

[11] = tested on: blackgrass; assay: Test Example 4: herbicidal effect by soil treatment (Table 19, symbol J); assay type: in vivo, blackgrass (Alopecurus myosuroides); conditions: amount of applied herbicide 320 g/ha
Method in brief: as §3

[12] = tested on: Italian ryegrass; assay: Test Example 4: herbicidal effect by soil treatment (Table 19, symbol K); assay type: in vivo, Italian ryegrass (Lolium multiflorum); conditions: amount of applied herbicide 320 g/ha
Method in brief: as §3

[13] = tested on: windgrass; assay: Test Example 4: herbicidal effect by soil treatment (Table 19, symbol L); assay type: in vivo, windgrass (Apera spica-venti); conditions: amount of applied herbicide 320 g/ha
Method in brief: as §3

[14] = tested on: velvetleaf; assay: Test Example 4: herbicidal effect by soil treatment (Table 19, symbol M); assay type: in vivo, velvetleaf (Abutilon theophrasti); conditions: amount of applied herbicide 320 g/ha
Method in brief: as §3

[15] = tested on: redroot pigweed; assay: Test Example 4: herbicidal effect by soil treatment (Table 19, symbol N); assay type: in vivo, redroot pigweed (Amaranthus retroflexus); conditions: amount of applied herbicide 320 g/ha
Method in brief: as §3

[16] = tested on: lambsquarters; assay: Test Example 4: herbicidal effect by soil treatment (Table 19, symbol O); assay type: in vivo, lambsquarters (Chenopodium album); conditions: amount of applied herbicide 320 g/ha
Method in brief: as §3

[17] = tested on: chickweed; assay: Test Example 4: herbicidal effect by soil treatment (Table 19, symbol P); assay type: in vivo, common chickweed (Stellaria media); conditions: amount of applied herbicide 320 g/ha
Method in brief: as §3

[18] = tested on: persian speedwell; assay: Test Example 4: herbicidal effect by soil treatment (Table 19, symbol R); assay type: in vivo, Persian speedwell (Veronica persica); conditions: amount of applied herbicide 320 g/ha
Method in brief: as §3

[19] = tested on: southern crabgrass; assay: Test Example 5: herbicidal effect by foliage application, plastic box (Table 20, symbol F); assay type: in vivo, southern crabgrass (Digitaria ciliaris); conditions: amount of applied herbicide 320 g/ha; foliage application after 14-day growth; evaluated three weeks after application
Method in brief: (§4)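 Plants were sown into sterilized diluvial soil under about 1.5 cm cover and kept in a greenhouse at 25° C. to 30° C. Fourteen days on, foliage received an even spray of the diluted emulsion. Herbicidal or crop effect was judged three weeks afterwards.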

[20] = tested on: green foxtail; assay: Test Example 5: herbicidal effect by foliage application, plastic box (Table 20, symbol G); assay type: in vivo, green foxtail (Setaria viridis); conditions: amount of applied herbicide 320 g/ha; foliage application after 14-day growth; evaluated three weeks after application
Method in brief: as §4

[21] = tested on: barnyard grass; assay: Test Example 5: herbicidal effect by foliage application, plastic box (Table 20, symbol H); assay type: in vivo, barnyard grass (Echinochloa crus-galli); conditions: amount of applied herbicide 320 g/ha; foliage application after 14-day growth; evaluated three weeks after application
Method in brief: as §4

[22] = tested on: wild oat; assay: Test Example 5: herbicidal effect by foliage application, plastic box (Table 20, symbol I); assay type: in vivo, wild oat (Avena fatua); conditions: amount of applied herbicide 320 g/ha; foliage application after 14-day growth; evaluated three weeks after application
Method in brief: as §4

[23] = tested on: blackgrass; assay: Test Example 5: herbicidal effect by foliage application, plastic box (Table 20, symbol J); assay type: in vivo, blackgrass (Alopecurus myosuroides); conditions: amount of applied herbicide 320 g/ha; foliage application after 14-day growth; evaluated three weeks after application
Method in brief: as §4

[24] = tested on: Italian ryegrass; assay: Test Example 5: herbicidal effect by foliage application, plastic box (Table 20, symbol K); assay type: in vivo, Italian ryegrass (Lolium multiflorum); conditions: amount of applied herbicide 320 g/ha; foliage application after 14-day growth; evaluated three weeks after application
Method in brief: as §4

[25] = tested on: windgrass; assay: Test Example 5: herbicidal effect by foliage application, plastic box (Table 20, symbol L); assay type: in vivo, windgrass (Apera spica-venti); conditions: amount of applied herbicide 320 g/ha; foliage application after 14-day growth; evaluated three weeks after application
Method in brief: as §4

[26] = tested on: velvetleaf; assay: Test Example 5: herbicidal effect by foliage application, plastic box (Table 20, symbol M); assay type: in vivo, velvetleaf (Abutilon theophrasti); conditions: amount of applied herbicide 320 g/ha; foliage application after 14-day growth; evaluated three weeks after application
Method in brief: as §4

[27] = tested on: redroot pigweed; assay: Test Example 5: herbicidal effect by foliage application, plastic box (Table 20, symbol N); assay type: in vivo, redroot pigweed (Amaranthus retroflexus); conditions: amount of applied herbicide 320 g/ha; foliage application after 14-day growth; evaluated three weeks after application
Method in brief: as §4

[28] = tested on: lambsquarters; assay: Test Example 5: herbicidal effect by foliage application, plastic box (Table 20, symbol O); assay type: in vivo, lambsquarters (Chenopodium album); conditions: amount of applied herbicide 320 g/ha; foliage application after 14-day growth; evaluated three weeks after application
Method in brief: as §4

[29] = tested on: chickweed; assay: Test Example 5: herbicidal effect by foliage application, plastic box (Table 20, symbol P); assay type: in vivo, common chickweed (Stellaria media); conditions: amount of applied herbicide 320 g/ha; foliage application after 14-day growth; evaluated three weeks after application
Method in brief: as §4

[30] = tested on: false cleavers; assay: Test Example 5: herbicidal effect by foliage application, plastic box (Table 20, symbol Q); assay type: in vivo, false cleavers (Galium spurium); conditions: amount of applied herbicide 320 g/ha; foliage application after 14-day growth; evaluated three weeks after application
Method in brief: as §4

[31] = tested on: persian speedwell; assay: Test Example 5: herbicidal effect by foliage application, plastic box (Table 20, symbol R); assay type: in vivo, Persian speedwell (Veronica persica); conditions: amount of applied herbicide 320 g/ha; foliage application after 14-day growth; evaluated three weeks after application
Method in brief: as §4

SMILES: CCCC(=O)Oc1c(C)nn(C)c(=O)c1-c1c(-c2ccc(COC)cc2)sc2cc(F)c(F)cc12 [5-010]
- Herbicidal effect, A: late watergrass [1]: 0 (Herbicidal rate of 5% or less (almost no effect))
- Herbicidal effect, B: Japanese bulrush [2]: 2 (Herbicidal rate of 20% or more and less than 40%)
- Herbicidal effect, C: oval-leafed pondweed [3]: 0 (Herbicidal rate of 5% or less (almost no effect))
- herbicidal effect on barnyard grass (H) [4]: 3 (Herbicidal rate of 40% or more and less than 70%)
- herbicidal effect on Chinese sprangletop (D) [5]: 3 (Herbicidal rate of 40% or more and less than 70%)
- herbicidal effect on rice flat sedge (E) [6]: 4 (Herbicidal rate of 70% or more and less than 90%)
- F: southern crabgrass, herbicidal effect grade [7]: 0 (Herbicidal rate of 5% or less (almost no effect))
- G: green foxtail, herbicidal effect grade [8]: 0 (Herbicidal rate of 5% or less (almost no effect))
- H: barnyard grass, herbicidal effect grade [9]: 2 (Herbicidal rate of 20% or more and less than 40%)
- I: wild oat, herbicidal effect grade [10]: 0 (Herbicidal rate of 5% or less (almost no effect))
- J: blackgrass, herbicidal effect grade [11]: 0 (Herbicidal rate of 5% or less (almost no effect))
- K: Italian ryegrass, herbicidal effect grade [12]: 0 (Herbicidal rate of 5% or less (almost no effect))
- L: windgrass, herbicidal effect grade [13]: 0 (Herbicidal rate of 5% or less (almost no effect))
- M: velvetleaf, herbicidal effect grade [14]: 2 (Herbicidal rate of 20% or more and less than 40%)
- N: redroot pigweed, herbicidal effect grade [15]: 3 (Herbicidal rate of 40% or more and less than 70%)
- O: lambsquarters, herbicidal effect grade [16]: 3 (Herbicidal rate of 40% or more and less than 70%)
- P: chickweed, herbicidal effect grade [17]: 0 (Herbicidal rate of 5% or less (almost no effect))
- R: persian speedwell, herbicidal effect grade [18]: 2 (Herbicidal rate of 20% or more and less than 40%)
- Herbicidal effect by foliage application, F: southern crabgrass [19]: 0 (Herbicidal rate of 5% or less (almost no effect))
- Herbicidal effect by foliage application, G: green foxtail [20]: 4 (Herbicidal rate of 70% or more and less than 90%)
- Herbicidal effect by foliage application, H: barnyard grass [21]: 1 (Herbicidal rate of 5% or more and less than 20%)
- Herbicidal effect by foliage application, I: wild oat [22]: 0 (Herbicidal rate of 5% or less (almost no effect))
- Herbicidal effect by foliage application, J: blackgrass [23]: 0 (Herbicidal rate of 5% or less (almost no effect))
- Herbicidal effect by foliage application, K: Italian ryegrass [24]: 1 (Herbicidal rate of 5% or more and less than 20%)
- Herbicidal effect by foliage application, L: windgrass [25]: 0 (Herbicidal rate of 5% or less (almost no effect))
- Herbicidal effect by foliage application, M: velvetleaf [26]: 0 (Herbicidal rate of 5% or less (almost no effect))
- Herbicidal effect by foliage application, N: redroot pigweed [27]: 2 (Herbicidal rate of 20% or more and less than 40%)
- Herbicidal effect by foliage application, O: lambsquarters [28]: 3 (Herbicidal rate of 40% or more and less than 70%)
- Herbicidal effect by foliage application, P: chickweed [29]: 3 (Herbicidal rate of 40% or more and less than 70%)
- Herbicidal effect by foliage application, Q: false cleavers [30]: 5 (Herbicidal rate of 90% or more (almost completely withered))
- Herbicidal effect by foliage application, R: persian speedwell [31]: 5 (Herbicidal rate of 90% or more (almost completely withered))

Reference: patent US20230085307A1, “PYRIDAZINONE COMPOUND AND HERBICIDE” (NISSAN CHEMICAL CORPORATION, priority 2019, published 2023)
